{
  "source": "patent US8183364B2",
  "about": "“Substituted porphyrins” (Duke University, priority 2004, dated 2012)",
  "key": {"[1]": {"details": "stroke model; cited from earlier work"}, "[2]": {"assay": "Catalysis of O2.^− dismutation by pulse radiolysis", "assay_type": "biochemical", "details": "pulse radiolysis, pH 7.8, (22 ± 1) °C; kcat ±30%", "experimental": "Catalysis of O2.^− dismutation. The catalytic rate constants for the O2.^− dismutation were determined by pulse radiolysis in 0.05 M phosphate buffer (pH 7.8) at (22±1)° C. as previously described (Batinic-Haberle et al, Inorg. Chem. 40:726 (2001)). In the present study 10 mM formate was used as a scavenger for H. atoms and .OH radicals, which leads first to production of CO2.^− radicals and then to O2.^− radicals. This system is known to lead to conversion of all primary radicals of water radiolysis into O2.^−.\nCatalysis of O2.^− dismutation. Pulse radiolysis was used to assess the SOD-like activities of the Mn porphyrins studied. The initial concentration of O2.^− produced by the pulse was about 27 μM, and the concentration of the Mn porphyrin was between 0.5 and 5 μM. The dismutation of O2.^− was followed at 280 nm. The catalytic rate constant was determined from the linear dependence of kobs upon the concentration of the catalyst (Batinic-Haberle et al, Inorg. Chem. 40:726 (2001)). All the new compounds have high O2.^− dismuting ability. The magnitude of the catalysis is due to the interplay of the electron-withdrawing effects of quaternized ortho pyridyl or di-ortho imidazolyl groups, favorable electrostatics, and the solvation of the metal site."}, "[3]": {"assay": "Thin-layer chromatography on silica gel (retention factor Rf, lipophilicity)", "assay_type": "physicochemical", "details": "silica gel TLC, KNO3-saturated H2O/H2O/acetonitrile = 1/1/8", "experimental": "Uv/vis spectra of porphyrin ligands and their Mn complexes were taken on a Shimadzu UV-2501-PC spectrophotometer at 25° C. Thin-layer chromatography of ligands and Mn complexes was done using silica gel plates with KNO3satH2O/H2O/acetonitrile=1/1/8.\nThin-layer chromatography. All new methoxyporphyrins are more lipophilic than MnTE-2-PyP^5+ and MnTDE-2-ImP^5+."}, "[4]": {"assay": "Electrochemistry: cyclic voltammetry of the Mn(III)/Mn(II) redox couple", "assay_type": "physicochemical", "experimental": "Electrochemistry. Measurements were performed on a CH Instruments Model 600 Voltammetric Analyzer (Spasojevic and Batinic-Haberle, Inorg. Chim. Acta. 317:230-242 (2001), Batinic-Haberle et al, J. Biol. Chem. 273:24521-24528 (1998), Batinic-Haberle et al, Inorg. Chem. 38:4011-4022 (1999)). A three-electrode system in a small volume cell (0.5 mL to 3 mL), with a 3 mm-diameter glassy carbon button working electrode (Bioanalytical Systems), plus the Ag/AgCl reference and Pt auxiliary electrodes was used. Argon-purged solutions contained 0.05 M phosphate buffer, pH 7.8, 0.1 M NaCl, and 0.5 mM metalloporphyrin. The scan rates were 0.01-0.5 V/s, typically 0.1 V/s. The potentials were standardized against the potassium ferrocyanide/ferricyanide (Kolthof and Tomsicek, J. Phys. Chem. 39:945 (1935)) and/or against MnTE-2-PyP^5+ (Spasojevic and Batinic-Haberle, Inorg. Chim. Acta. 317:230-242 (2001), Batinic-Haberle et al, J. Biol. Chem. 273:24521-24528 (1998), Batinic-Haberle et al, Inorg. Chem. 38:4011-4022 (1999)).\nElectrochemistry. All cyclic voltammograms, ascribed to the Mn(III)/Mn(II) redox couple, are reversible. The E1/2 of di-ortho ethylimidazolylporphyrin, MnTDE-2-ImP^5+ is 118 mV more positive than of ortho ethylpyridylporphyrin, MnTE-2-PyP^5+ (+228 mV vs NHE), as a consequence of charge delocalization. A similar difference of 114 mV was seen between their methoxyethyl analogues. Mn porphyrins bearing N-pyridyl substituents of the same length, MnTnBu-PyP^5+ and MnTMOE-2-PyP^5+, have nearly identical E1/2 of +254 and +251 mV vs NHE, which is 26 and 23 mV higher than that of MnTE-PyP^5+."}, "[5]": {"details": "given intravenously; cited from earlier work"}, "[6]": {"system": "SOD-deficient JI132 E. coli", "assay": "Aerobic growth of SOD-deficient E. coli", "assay_type": "cell-based", "experimental": "Aerobic growth of E. coli. Bacterial strains of E. coli used were wild type AB1157 (F-thr-1 leu-1 proA2 his-4 argE3 thr-1 lacY1 galK2 rpsL supE44 ara-14 xyl-15 mtl-1 tsx-33) and SOD-deficient JI132 (same as AB1157 plus (sodA::mudPR13)25 (sodB-kan)1-Δ2. Culture media were prepared as follows. M9 medium: 6 g/L Na2HPO4, 3 g/L KH2PO4, 0.5 g/L NaCl, 1 g/L NH4Cl, 2 mM MgSO4, 0.1 mM CaCl2, adjusted to pH 7.4 with NaOH, and supplemented with 0.2% glucose, 3 mg/L each of D-panthotenic acid and thiamine. M9CA medium contained M9 medium plus 0.2% casamino acids. 5-amino acid (5AA) minimal medium contained M9 medium plus 0.5 mM each of threonine, leucine, histidine, proline and arginine (Faulkner et al, J. Biocl. Chem. 269:23471 (1994)).\nAB 1157 and 31132 were precultured overnight aerobically in M9CA medium at 37° C. and were then diluted to 3×10^7 cells/mL into 5 mL M9CA medium. JI132 was precultured in the presence of 20 μg/mL chloramphenicol and 500 μg/mL kanamycin. When the cells are transferred from M9CA medium to 5AA minimal medium cultures were first centrifuged and washed twice with the 5AA medium before final dilution in it. The centrifugation was conducted at room temperature to avoid temperature shocks. Cultures without and with Mn porphyrins (0.1 to 30 μM) were grown aerobically in 5 mL volume in test tubes in a thermostated orbital shaker (45° angle, 200 rpm) at 37° C.). Rates of growth were followed turbidimetrically at 700 nm to minimize interference from the absorbance of test compounds."}, "[7]": {"assay": "Oxidative degradation in the presence of ascorbic acid under aerobic conditions", "assay_type": "physicochemical", "details": "pH 7.8 (0.05 M tris buffer)", "experimental": "Under these conditions porphyrins underwent oxidative degradation. As previously observed (Batinic-Haberle et al, J. Chem. Soc., Dalton Trans., pgs. 2689-2696 (2002)), those porphyrins that are of more positive E1/2 are stabilized in +2 oxidation state and are less prone to oxidative damage. Accordingly, 27% and 24% of MnTE-2-PyP^5+ and MnTMOE-2-PyP^5+ undergo degradation within 2 hours, but only 2% of MnTM,MOE-2-ImP^5+ and MnTDMOE-2-ImP^5+ and 3% of MnTDE-2-ImP^5+."}},
  "data": [
    {"molecule": "CCn1cc[n+](CC)c1-c1c2nc(c(-c3n(CC)cc[n+]3CC)c3ccc([n-]3)c(-c3n(CC)cc[n+]3CC)c3nc(c(-c4n(CC)cc[n+]4CC)c4ccc1[n-]4)C=C3)C=C2.[Mn+3]", "note": "[MnTDE-2-ImP^5+, Mn(III) 5,10,15,20-tetrakis[N,N′-diethylimidazolium-2-yl]porphyrin]", "values": [
      {"measurement": "neurotoxicity lower than the pyridyl compound (MnTE-2-PyP^5+)", "setting": "[1]", "value": 16, "unit": "fold"},
      {"measurement": "log kcat for O2^− dismutation", "setting": "[2]", "value": 7.83},
      {"measurement": "Rf (compound path/solvent path), metal-free porphyrin (in parenthesis)", "setting": "[3]; metal-free ligand of the named Mn porphyrin", "value": 0.23},
      {"measurement": "Rf (compound path/solvent path), Mn complex", "setting": "[3]", "value": 0.17},
      {"measurement": "E1/2 difference of imidazolyl porphyrin vs analogous pyridyl porphyrin", "setting": "[4]", "value": "more than 100 mV"},
      {"measurement": "Metal-centered redox potential E1/2", "setting": "[4]; Mn(III)/Mn(II), 0.1 M NaCl, 0.05 M phosphate buffer, pH 7.8, ±3 mV", "value": "+346 mV vs NHE"},
      {"measurement": "E1/2 more positive / higher than that of MnTE-2-PyP^5+", "setting": "[4]; difference vs MnTE-2-PyP^5+ (+228 mV vs NHE)", "value": 118, "unit": "mV"},
      {"measurement": "passing the spinal cord blood barrier compared to MnTE-2-PyP^5+", "setting": "[5]", "value": "less effective"},
      {"measurement": "protectiveness in spinal cord injury compared to MnTE-2-PyP^5+", "setting": "[5]", "value": "lacks protectiveness"},
      {"measurement": "protection of SOD-deficient E. coli", "setting": "[6]; M9CA medium, 1 μM", "value": "low protection"},
      {"measurement": "protection of SOD-deficient E. coli", "setting": "[6]; M9CA medium, 3 μM", "value": "ineffective"},
      {"measurement": "protection of SOD-deficient E. coli", "setting": "[6]; M9CA medium, 30 μM", "value": "either much higher or near full protection"},
      {"measurement": "facilitation of aerobic growth of SOD-deficient E. coli, dependence on concentration", "setting": "[6]; M9CA medium, 1-30 μM", "value": "concentration-dependent manner"},
      {"measurement": "protection of E. coli from oxidative stress", "setting": "[6]; ≦3 μM levels (FIG. 10: 5AA minimal medium)", "value": "the least effective"},
      {"measurement": "degradation within 2 hours", "setting": "[7]", "value": 3, "unit": "%"}
    ]}
  ]
}
